Tests used:
Type in all cases: in vivo
Conditions in all cases: mortality
Plutella xylostella = Plutella xylostella - test (cabbage leaf dip, larvae)
Experimental: (§1) To produce a suitable preparation of active compound, 1 part by weight of active compound is mixed with the stated amount of solvent and emulsifier, and the concentrate is diluted with emulsifier-containing water to the desired concentration.
Cabbage leaves (Brassica oleracea) are treated by being dipped into the preparation of the active compound of the desired concentration and are infested with larvae of the diamond back moth (Plutella xylostella) as long as the leaves are still moist.
(§2) After the specified period of time, the mortality in % is determined. 100% means that all the caterpillars have been killed; 0% means that none of the caterpillars have been killed.

Spodoptera exigua = Spodoptera exigua - test (cabbage leaf dip, larvae)
Experimental: as §1
Cabbage leaves (Brassica oleracea) are treated by being dipped into the preparation of the active compound of the desired concentration and are infested with larvae of the beet army worm (Spodoptera exigua) as long as the leaves are still moist.
as §2

Spodoptera frugiperda = Spodoptera frugiperda - test (cabbage leaf dip, larvae)
Experimental: as §1
Cabbage leaves (Brassica oleracea) are treated by being dipped into the preparation of the active compound of the desired concentration and are infested with larvae of the fall army worm (Spodoptera frugiperda) as long as the leaves are still moist.
as §2

O=[N+]([O-])NC1=NCCN1Cc1ccc(Cl)nc1 [Imidacloprid, imidacloprid]
Efficacy in % after 4d (Plutella xylostella; 20 ppm, first part of Table A): 5%
Efficacy in % after 3d (Spodoptera exigua; 20 ppm): 0%

N#C/N=C1\SCCN1Cc1ccc(Cl)nc1 [Thiacloprid, thiacloprid]
Efficacy in % after 3d (Spodoptera exigua; 100 ppm): 10%

CN/C(=N\[N+](=O)[O-])NCc1cnc(Cl)s1 [Clothianidin, clothianidin]
Efficacy in % after 4d (Plutella xylostella; 4 ppm, second part of Table A): 0%
Efficacy in % after 4d (Spodoptera frugiperda; 4 ppm): 0%

CSC1=N[C@@](C)(c2ccccc2)C(=O)N1Nc1ccccc1 [Fenamidone, fenamidone]
Efficacy in % after 4d (Plutella xylostella; 200 ppm, first part of Table A): 35%
Efficacy in % after 4d (Plutella xylostella; 200 ppm, second part of Table A): 65%
Efficacy in % after 4d (Plutella xylostella; 500 ppm, first part of Table A): 75%
Efficacy in % after 3d (Spodoptera exigua; 100 ppm): 0%
Efficacy in % after 3d (Spodoptera exigua; 200 ppm): 0%
Efficacy in % after 4d (Spodoptera frugiperda; 200 ppm): 0%

CN1COCN(Cc2cnc(Cl)s2)/C1=N\[N+](=O)[O-] [Thiamethoxam, thiamethoxam]
Efficacy in % after 4d (Plutella xylostella; 4 ppm, first part of Table A): 0%
